Data on 18 molecules can be found in patent publication US12240862B2, “Inhibitors of peptidylarginine deiminases” (Gilead Sciences, Inc., priority 2020, dated 2025).

The assay concerns the target T1, human PAD4 (Homo sapiens, UniProt Q9UM07).
T1 construct: human PAD4 (NM_012387), A2P663, was PCR amplified; His-SUMO (N, cleaved yes); made in house; host or cells: E. coli BL21(DE3)
As to the kind of experiment: In vitro PAD4 BAEE biochemical assay. The conditions noted are these: human PAD4, BAEE substrate; 5 nM PAD4, 2 mM calcium chloride, 3 mM BAEE; geometric mean of multiple experiments. Put shortly: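 Tag-free recombinant hPAD4 (5 nM), 2 mM CaCl2, 3 mM BAEE, 50 mM MOPS pH 7.6, 2 mM DTT; 30 min compound preincubation, 2 h reaction, all 25 °C. EDTA quench; ammonia read via o-phthalaldehyde amine coupling, 1 h.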

T1 sequence (Q9UM07 2-663): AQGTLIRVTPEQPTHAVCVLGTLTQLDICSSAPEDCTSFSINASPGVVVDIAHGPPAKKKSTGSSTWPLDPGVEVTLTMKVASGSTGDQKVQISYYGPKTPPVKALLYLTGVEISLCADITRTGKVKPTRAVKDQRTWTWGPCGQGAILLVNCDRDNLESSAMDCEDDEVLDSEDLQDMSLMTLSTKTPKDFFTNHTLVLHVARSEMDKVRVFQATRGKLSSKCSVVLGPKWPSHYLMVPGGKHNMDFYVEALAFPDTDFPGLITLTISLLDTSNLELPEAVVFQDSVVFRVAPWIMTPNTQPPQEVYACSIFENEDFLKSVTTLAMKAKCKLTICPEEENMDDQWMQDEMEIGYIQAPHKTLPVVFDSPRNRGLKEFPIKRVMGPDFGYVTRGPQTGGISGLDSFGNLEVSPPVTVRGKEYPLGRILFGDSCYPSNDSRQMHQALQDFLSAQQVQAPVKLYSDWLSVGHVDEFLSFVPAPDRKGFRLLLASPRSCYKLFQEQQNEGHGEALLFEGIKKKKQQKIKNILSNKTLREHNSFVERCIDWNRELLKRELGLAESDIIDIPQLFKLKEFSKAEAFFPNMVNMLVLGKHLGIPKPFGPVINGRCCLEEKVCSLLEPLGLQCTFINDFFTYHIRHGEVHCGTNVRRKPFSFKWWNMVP

Regarding `COc1cc(C(=O)N2[C@H]3CC[C@@H]2[C@H](N)C3)cc2nc(-c3cc4ccc(N5CCCN(C)S5(=O)=O)nc4n3CC3CC3)c(C)n12` [Example 455, [(1~{R},2~{R},4~{S})-2-amino-7-azabicyclo [2.2.1]heptan-7-yl]-[2-[1-(cyclopropylmethyl)-6-(6-methyl-1,1-dioxo-1,2,6-thiadiazinan-2-yl)pyrrolo[2,3-b]pyridin-2-yl]-5-methoxy-3-methylimidazo[1,2-a]pyridin-7-yl]methanone], the IC50 came to 113 nM.
With `COc1cc(C(=O)N2[C@H]3CC[C@@H]2[C@H](N)C3)cc2nc(-c3cc4ccc(N5C(=O)CCCC5C)nc4n3CC3CC3)c(C)n12` (stereo partly drawn) [Example 456, 1-[2-[7-[(1~{R},2~{R}, 4~{S})-2-amino-7-azabicyclo[2.2.1]heptane-7-carbonyl]-5-methoxy-3-methylimidazo[1,2-a]pyridin-2-yl]-1-(cyclopropylmethyl)pyrrolo[2,3-b]pyridin-6-yl]-6-methylpiperidin-2-one], the IC50 amounted to 250 nM.
With `COc1cc(C(=O)N2[C@H]3CC[C@@H]2[C@H](N)C3)cc2nc(-c3cc4ccc(N5CCCC6(CC6)S5(=O)=O)nc4n3CC3CC3)c(C)n12` [Example 457, [(1~{R},2~{R},4~{S})-2-amino-7-azabicyclo [2.2.1]heptan-7-yl]-[2-[1-(cyclopropylmethyl)-6-(4,4-dioxo-4$l^6-thia-5-azaspiro[2.5]octan-5-yl)pyrrolo[2,3-b]pyridin-2-yl]-5-methoxy-3-methylimidazo[1,2-a]pyridin-7-yl]methanone] the figure was 52.2 nM.
To `COc1cc(C(=O)N2[C@H]3CC[C@@H]2[C@H](N)C3)cc2nc(-c3cc4ccc(N5CCOCS5(=O)=O)nc4n3CC3CC3)c(C)n12` [Example 458, [(1~{R},2~{R},4~{S})-2-amino-7-azabicyclo [2.2.1]heptan-7-yl]-[2-[1-(cyclopropylmethyl)-6-(3,3-dioxo-1,3,4-oxathiazinan-4-yl)pyrrolo [2,3-b]pyridin-2-yl]-5-methoxy-3-methylimidazo[1,2-a]pyridin-7-yl]methanone] belongs 52.3 nM; to `COc1cc(C(=O)N2[C@H]3CC[C@@H]2[C@H](N)C3)cc2nc(-c3cc4ccc(N5CCCCCS5(=O)=O)nc4n3CC3CC3)c(C)n12` [Example 459, [(1~{R},2~{R},4~{S})-2-amino-7-azabicyclo [2.2.1]heptan-7-yl]-[2-[1-(cyclopropylmethyl)-6-(1,1-dioxothiazepan-2-yl)pyrrolo[2,3-b]pyridin-2-yl]-5-methoxy-3-methylimidazo[1,2-a]pyridin-7-yl]methanone], 28 nM.
With `COc1cc(C(=O)N2[C@H]3CC[C@@H]2[C@H](N)C3)cc2nc(-c3cc4ccc(N5CCOc6ccccc6S5(=O)=O)nc4n3CC3CC3)c(C)n12` [Example 460, [(1~{R},2~{R},4~{S})-2-amino-7-azabicyclo [2.2.1]heptan-7-yl]-[2-[1-(cyclopropylmethyl)-6-(1,1-dioxo-3,4-dihydro-5,1$l^6,2-benzoxathiazepin-2-yl)pyrrolo[2,3-b]pyridin-2-yl]-5-methoxy-3-methylimidazo[1,2-a]pyridin-7-yl]methanone] the figure was 99.9 nM.
Turning to `COc1cc(C(=O)N2[C@H]3CC[C@@H]2[C@H](N)C3)cc2nc(-c3cc4ccc(N5Cc6ccccc6CS5(=O)=O)nc4n3CC3CC3)c(C)n12` [Example 461, [(1~{R},2~{R},4~{S})-2-amino-7-azabicyclo [2.2.1]heptan-7-yl]-[2-[1-(cyclopropylmethyl)-6-(2,2-dioxo-1,4-dihydro-2$l^6,3-benzothiazin-3-yl)pyrrolo[2,3-b]pyridin-2-yl]-5-methoxy-3-methylimidazo[1,2-a]pyridin-7-yl]methanone], the half-maximal inhibitory concentration (IC50) stood at 294 nM.
Take `COc1cc(C(=O)N2[C@H]3CC[C@@H]2[C@H](N)C3)cc2nc(-c3cc4ccc(N5[C@@H](C)CCCS5(=O)=O)nc4n3CC3CC3)c(C)n12` [Example 462, ((1R,2R,4S)-2-amino-7-azabicyclo[2.2.1]heptan-7-yl)(2-(1-(cyclopropylmethyl)-6-((S)-3-methyl-1,1-dioxido-1,2-thiazinan-2-yl)-1H-pyrrolo[2,3-b]pyridin-2-yl)-5-methoxy-3-methylimidazo[1,2-a]pyridin-7-yl)methanone]: the IC50 turned out to be 39.7 nM.
For the molecule `COc1cc(C(=O)N2[C@H]3CC[C@@H]2[C@H](N)C3)cc2nc(-c3cc4ccc(N5[C@H](C)CCCS5(=O)=O)nc4n3CC3CC3)c(C)n12` [Example 463, [(1~{R},2~{R},4~{S})-2-amino-7-azabicyclo [2.2.1]heptan-7-yl]-[2-[1-(cyclopropylmethyl)-6-[(3~{R})-3-methyl-1,1-dioxothiazinan-2-yl]pyrrolo[2,3-b]pyridin-2-yl]-5-methoxy-3-methylimidazo [1,2-a]pyridin-7-yl] methanone], the half-inhibitory concentration (IC50) stood at 133 nM.
To `COc1cc(C(=O)N2[C@H]3CC[C@@H]2[C@H](N)C3)cc2nc(-c3cc4ccc(N5CCCOC5=O)nc4n3CC3CC3)c(C)n12` [Example 464, 3-[2-[7-[(1~{R},2~{R}, 4~{S})-2-amino-7-azabicyclo[2.2.1]heptane-7-carbonyl]-5-methoxy-3-methylimidazo[1,2-a]pyridin-2-yl]-1-(cyclopropylmethyl)pyrrolo [2,3-b]pyridin-6-yl]-1,3-oxazinan-2-one] belongs 100 nM; to `COC(=O)N(C)c1ccc2cc(-c3nc4cc(C(=O)N5[C@H]6CC[C@@H]5[C@H](N)C6)cc(OC)n4c3C)n(CC3CC3)c2n1` [Example 465, methyl~{N}-[2-[7-[(1~{R},2~{R},4~{S})-2-amino-7-azabicyclo[2.2.1]heptane-7-carbonyl]-5-methoxy-3-methylimidazo [1,2-a]pyridin-2-yl]-1-(cyclopropylmethyl)pyrrolo [2,3-b]pyridin-6-yl]-~{N}-methylcarbamate], 85.6 nM.
Consider `CCOC(=O)N(C)c1ccc2cc(-c3nc4cc(C(=O)N5[C@H]6CC[C@@H]5[C@H](N)C6)cc(OC)n4c3C)n(CC3CC3)c2n1` [Example 466, ethyl~{N}-[2-[7-[(1~{R},2~{R},4~{S})-2-amino-7-azabicyclo[2.2.1]heptane-7-carbonyl]-5-methoxy-3-methylimidazo [1,2-a]pyridin-2-yl]-1-(cyclopropylmethyl)pyrrolo [2,3-b]pyridin-6-yl]-~{N}-methylcarbamate], for which the IC50 turned out to be 143 nM.
To `COc1cc(C(=O)N2[C@H]3CC[C@@H]2[C@H](N)C3)cc2nc(-c3cc4ccc(N5c6ccccc6CS5(=O)=O)nc4n3CC3CC3)c(C)n12` [Example 467, [(1~{R},2~{R},4~{S})-2-amino-7-azabicyclo [2.2.1]heptan-7-yl]-[2-[1-(cyclopropylmethyl)-6-(2,2-dioxo-3~{H}-2,1-benzothiazol-1-yl)pyrrolo [2,3-b]pyridin-2-yl]-5-methoxy-3-methylimidazo [1,2-a]pyridin-7-yl] methanone] belongs 361 nM.
Take `COc1cc(C(=O)N2[C@H]3CC[C@@H]2[C@H](N)C3)cc2nc(-c3cc4ccc(N5c6ccccc6CCS5(=O)=O)nc4n3CC3CC3)c(C)n12` [Example 468, [(1~{R},2~{R},4~{S})-2-amino-7-azabicyclo [2.2.1]heptan-7-yl]-[2-[1-(cyclopropylmethyl)-6-(2,2-dioxo-3,4-dihydro-2$l^6,1-benzothiazin-1-yl)pyrrolo[2,3-b]pyridin-2-yl]-5-methoxy-3-methylimidazo[1,2-a]pyridin-7-yl]methanone]: the half-inhibitory concentration (IC50) came out at 238 nM.
As to `COc1cc(C(=O)N2[C@H]3CC[C@@H]2[C@H](N)C3)cc2nc(-c3cc4ccc(N5CCCC(c6ccccc6)S5(=O)=O)nc4n3CC3CC3)c(C)n12` (stereo partly drawn) [Example 469, [(1~{R},2~{R},4~{S})-2-amino-7-azabicyclo [2.2.1]heptan-7-yl]-[2-[1-(cyclopropylmethyl)-6-(1,1-dioxo-6-phenylthiazinan-2-yl)pyrrolo[2,3-b]pyridin-2-yl]-5-methoxy-3-methylimidazo[1,2-a]pyridin-7-yl]methanone], the 50% inhibitory concentration (IC50) was determined as 781 nM.
With `CCN(C(=O)OC)c1ccc2cc(-c3nc4cc(C(=O)N5[C@H]6CC[C@@H]5[C@H](N)C6)cc(OC)n4c3C)n(CC3CC3)c2n1` [Example 470, methyl~{N}-[2-[7-[(1~{R},2~{R},4~{S})-2-amino-7-azabicyclo[2.2.1]heptane-7-carbonyl]-5-methoxy-3-methylimidazo [1,2-a]pyridin-2-yl]-1-(cyclopropylmethyl)pyrrolo [2,3-b]pyridin-6-yl]-~{N}-ethylcarbamate] the figure was 165 nM; with `[2H]C([2H])([2H])N(c1ccc2cc(-c3nc4cc(C(=O)N5C[C@H]6CC[C@@H]5[C@@H]6N)cc(OC)n4c3C)n(CC3CC3)c2n1)S(=O)(=O)Cc1ccccc1` [Example 471, N-[2-[7-[(1R,4R,7R)-7-amino-2-azabicyclo[2.2.1]heptane-2-carbonyl]-5-methoxy-3-methyl-imidazo [1,2-a]pyridin-2-yl]-1-(cyclopropylmethyl)pyrrolo[2,3-b]pyridin-6-yl]-1-phenyl-N-(trideuteriomethyl) methanesulfonamide], 1360 nM.
With `COc1cc(C(=O)N2[C@H]3CC[C@@H]2[C@H](N)C3)cc2nc(-c3cc4ccc(N5[C@@H]6CC[C@@H](C6)CS5(=O)=O)nc4n3CC3CC3)c(C)n12` [Example 473, [(1~{R},2~{R},4~{S})-2-amino-7-azabicyclo [2.2.1]heptan-7-yl]-[2-[1-(cyclopropylmethyl)-6-[(1~ {R},5~{S})-3,3-dioxo-3$l^6-thia-2-azabicyclo[3.2.1]octan-2-yl]pyrrolo [2,3-b]pyridin-2-yl]-5-methoxy-3-methylimidazo [1,2-a]pyridin-7-yl] methanone] the figure was 117 nM.

As usually defined, the IC50 is the concentration at which inhibition is half-maximal.
